Measurements as given in patent US7754483B2, “Systems and methods for selection and maintenance of homogeneous and pluripotent human embryonic stem cells” (The Penn State Research Foundation, priority 2005, dated 2010).

Legend:
hES cells, H1 or H9 = test: Liposomal ceramide treatment of hES cell colonies co-cultured with mouse feeder cells; format: cell-based
Description: Mouse feeder cells are irradiated (7500 Rad) and plated (2×10^4 cells/cm^2) on 6-well plates pre-coated with 0.1% gelatin. Feeder cells are allowed to attach and grow overnight prior to hES cell co-culture. Human ES cells are maintained with Dulbecco's Modified Eagle Medium/F12 (Gibco) supplemented with 20% KnockOut serum replacement (Gibco), 1% nonessential amino acids (Gibco), 2 mM GlutaMAX-1 (Gibco), 4 ng/ml basic human FGF (Invitrogen) and 0.1 mM beta-mercaptoethanol (Sigma). Cells are manually passaged following 10 min of collagenase IV incubation (1 mg/ml) at 1:5-1:10 split ratio every 5-7 days. […] Human ES cells co-cultured with feeder cells are treated with collagenase IV for 10 min, collected manually and plated in a 1:3-1:5 split ratio (day=0). Cells are maintained with normal hES cell culture medium until treatment with ceramide (day=2).
Increasing concentrations, 1, 3, 5, 10, 15 and 30 micromolar, of liposomal C6-ceramide are added to hES cell culture medium after a majority of the colonies had reached a size between 0.5-0.7 mm in diameter (day 5-6 of the culture). Relative volumes of “ghost liposome” containing no ceramide are used as a control. These ghost liposomes contained an equal mass of total lipids as ceramide formulations. […]

hES cells [1] = test: In vitro differentiation of hES cells; format: cell-based, human; conditions: after elimination of ceramide-sensitive cells
Text: Once separated from feeder cells and serum, hES cells typically spontaneously differentiate into progenitor cells and such cultures include ectoderm, mesoderm and endoderm progenitor cells. Similar to in vivo embryogenesis, further differentiation of these progenitor cells results in formation of terminally differentiated cell types illustratively including neurons, cardiomyocytes, endothelial, and pancreatic β-cells. The ability of hES cells to form all three embryonic lineages is one of the main criteria to determine their pluripotency. Early lineage differentiation is assessed using lineage specific markers. Exemplary lineage specific markers include nestin for ectodermal; α-fetoprotein for endodermal; and brachyury for mesodermal. Later stages of differentiation of these progenitor cells into specialized cells are assessed by assay of markers for more specialized cells representing three lineages, such as serotonergic neurons, insulin-positive cells, and cardiomyocytes.
To assess in vitro differentiation, hES cells are isolated and transferred into non-coated culture plates where hES cells form embryoid bodies (EBs). For neuronal differentiation, these EBs are treated with a neurobasal medium (insulin-transferrin-selenium) to induce neuroprogenitor cell formation for seven days. Then, bFGF ([…]) is added to medium for another seven days. […]

[2] = test system: hES cells maintained in feeder cells-free culture system; test: Liposomal ceramide treatment of hES cells in feeder cell-free culture (GFR-MATRIGEL); format: cell-based, human; conditions: five micromolar
Text: NIH-registered hES cell lines, H1 (WA-01; 46XY) and H9 (WA-09; 46XX), are maintained on mouse embryonic fibroblasts (feeder cells) as recommended by the WiCell Research Institute (Madison, Wis.). Mouse feeder cells are irradiated (7500 Rad) and plated (2×10^4 cells/cm^2) on 6-well plates pre-coated with 0.1% gelatin. Feeder cells are allowed to attach and grow overnight prior to hES cell co-culture. Human ES cells are maintained with Dulbecco's Modified Eagle Medium/F12 (Gibco) supplemented with 20% KnockOut serum replacement (Gibco), 1% nonessential amino acids (Gibco), 2 mM GlutaMAX-1 (Gibco), 4 ng/ml basic human FGF (Invitrogen) and 0.1 mM beta-mercaptoethanol (Sigma). Cells are manually passaged following 10 min of collagenase IV incubation (1 mg/ml) at 1:5-1:10 split ratio every 5-7 days. For feeder cell-free culture, hES cells are plated and cultured on 6-well dishes coated with growth factor reduced (GFR)-MATRIGEL, diluted 1:24 in DMEM/F12. Human ES cells co-cultured with feeder cells are treated with collagenase IV for 10 min, collected manually and plated in a 1:3-1:5 split ratio (day=0). Cells are maintained with normal hES cell culture medium until treatment with ceramide (day=2). […]
Light microscopy images of cells from 10 random fields are recorded using a Nikon TS-100 phase-contrast microscope and a Nikon CoolPix 5000 digital camera. […]

hES cells [3] = test: Apoptosis detection by TUNEL assay; format: cell-based, human; conditions: Example 22, hESC colonies
Description: Ceramide-induced apoptosis is assessed and visualized by TUNEL assay using the In Situ Cell Death Detection Kit, TMR Red (Roche Applied Bioscience). A TUNEL (Terminal deoxynucleotidyl Transferase Biotin-dUTP Nick End Labeling) assay measures and quantitates apoptosis by labeling DNA strand breaks in individual cells and detecting them by fluorescence microscopy. Human ES cells are cultured on glass cover-slips coated with 0.1% gelatin and mouse feeder cells. When the majority of the colonies reached the size of 0.5-0.7 mm (usually by day 5 of the culture), cells are treated with liposomal C6-ceramide (3 micromolar final) or ghost (no ceramide) for 12 hr. Cells are incubated for 12 hr because cells undergoing apoptosis are still attached to the cover-slip, making observation convenient. After 12 hr, cells become round and detached. At the end of the treatment period, cells are fixed with 4% formaldehyde (Tousimis) in PBS. TUNEL assay is performed using the In Situ Cell Death Detection Kit, TMR Red (Roche Applied Bioscience) following the manufacturer's instructions. Briefly, cells are permeabilized by incubating in 0.1% PBST for 2 min on ice. TUNEL reaction mixture is prepared freshly by mixing 50 microliters of enzyme solution (terminal deoxynucleotidyl transferase) with 450 microliters label solution (nucleotide mixture). […]

ceramide
effect on peripheral cells of H9 hESC colonies (hES cells, H1 or H9; 5 micromolar, 8 hrs, H9 (WA09), with MEF): eliminates cells located on the periphery of the hESC colonies | growth of central hESCs after addition of ceramide (hES cells, H1 or H9; Example 22): continue their normal growth | differentiation capability of ceramide-selected hES cells (hES cells [1]): capable of differentiated into ectoderm, mesoderm or endoderm progenitor cells | effect on differentiation of hESCs without feeder cells [2]: inhibits differentiation and allows maintenance of undifferentiated stem cell growth | TUNEL: apoptosis after ceramide-conditioning (hES cells [3]): hESCs on the periphery of the colonies are, indeed, undergoing apoptosis
